# “And” between values parts separate entries of the source, which are not always exact repeats. Equal values may be shown once. “Also recorded” adds a separate entry of the source.
# System: collagen-induced arthritis
# Assay: Collagen-induced arthritis (CIA) model in rats: body weight, paw volume, clinical scores, clinical observations
# Details: CIA rats
# [1] = 3 mg/kg twice daily P.O. (group 5)
# [2] = 3 mg/kg twice daily P.O. (group 5), day 13
# [3] = 3 mg/kg twice daily P.O. (group 5), day 14
# [4] = 3 mg/kg twice daily P.O. (group 5), days 18, 19 and 21
# [5] = 10 mg/kg twice daily P.O. (group 6)
# [6] = 10 mg/kg twice daily P.O. (group 6), day 12
# [7] = 10 mg/kg twice daily P.O. (group 6), day 14
# Procedure: Prior to be randomly placed in treatment groups, animals were weighed, and paw volume was measured. Once randomly assigned to treatment groups, on Day 0, animals in groups 2-9 were immunized by subcutaneous injection at the base of the tail.
# The immunization comprised 100 μL of the CFA+Collagen emulsion (prepared according to the method in Experimental Method A). Animals in group one received no immunization. Seven days after the first injection, animals in groups 2-9 received a booster immunization comprising 200 μL of the IFA+Collagen emulsion (prepared according to the method in Experimental Method A).
# Starting on Day 0, animals in group 1 and 2 were administered daily doses of the vehicle per os (P.O.) for 21 days. […] The twice daily doses for animals in groups 4-9 were 8 hours apart (e.g., the first dose at 8:00 AM and the second dose at 4:00 PM).
# Body weight of all animals was recorded daily for the 21-day period. Blind clinical scores on all four limbs were conducted for all animals in the study. Animals were assessed prior to receiving their first dose of the compound or control, and scores for each limb were combined to a total daily score for each animal. Clinical score assessments were performed on Day 0, 6, 12, 13, 14, 15, 18, 19, and 21 (for a total of 9 daily scores).
# Paw volume was recorded for each animal on Day 0, 6, 12, 13, 14, 15, 18, 19, and 21 (for a total of 9 measurements). To measure paw volume, animals were gently held with one hand while the hind paw was placed into a plethysmometer with the other hand. Lipid displacement by the paw was recorded and used to represent paw volume.
# All data measured and recorded was analyzed using SPSS 16.0 software. Groups were compared using one-way ANOVA and significance was set at p<0.05.
structure (smiles),measurement,setting,value
"CNC(=O)c1[nH]c(C(=O)NC2CCC2)cc1O[C@@H](C)c1ccccc1 (stereo in doubt) [Example 101, N^5-cyclobutyl-N^2-methyl-3-(1-phenylethoxy)-1H-pyrrole-2,5-dicarboxamide]",day on which paw volume noticeably increased,[1],~14 days
same,effect on hind paw volume,[1],less effective at preventing an increase in paw volume over the course of the study; also recorded: performed similarly to GSK620
same,average overall clinical score at plateau,"3 mg/kg twice daily P.O. (group 5), around day 18",10
same,animals exhibiting signs of disease,"3 mg/kg twice daily P.O. (group 5), day 12",Three animals
same,animals exhibiting disease,[2],5/8
same,animals with a clinical score of 2 in one hind limb,[2],1/8
same,animals exhibiting disease,[3],all animals
same,animals with clinical scores of at least 2 in one or more hind limbs,[3],2/8
same,animals with a score of 4 in one hind limb and a score of 3 in the other hind limb,[4],2/8
same,animals with scores of 4 in each hind limb,[4],6/8
same,paw volume increase at plateau relative to day 0,"3 mg/kg twice daily P.O. (group 5), plateau at days 18-19",approximately 90%
same,Average animal paw volume percent change,"3 mg/kg, Day 0, left hind paw (L)",0.00%
same,Animal paw volume Day 0 L,"3 mg/kg, Day 0, left paw, individual animals",1.36 mL and 1.31 mL (2×) and 1.32 mL (2×) and 1.35 mL and 1.37 mL and 1.34 mL
same,Average animal paw volume percent change,"3 mg/kg, Day 0, right hind paw (R)",0.00%
same,Animal paw volume Day 0 R,"3 mg/kg, Day 0, right paw, individual animals",1.38 mL and 1.32 mL (2×) and 1.34 mL (3×) and 1.31 mL and 1.35 mL
same,Average animal paw volume percent change,"3 mg/kg, Day 6, left hind paw (L)",1.09%
same,Animal paw volume Day 6 L,"3 mg/kg, Day 6, left paw, individual animals",1.36 mL (2×) and 1.32 mL (2×) and 1.40 mL and 1.31 mL and 1.37 mL and 1.35 mL
same,Average animal paw volume percent change,"3 mg/kg, Day 6, right hind paw (R)",1.23%
same,Animal paw volume Day 6 R,"3 mg/kg, Day 6, right paw, individual animals",1.38 mL and 1.33 mL and 1.35 mL and 1.40 mL and 1.36 mL (2×) and 1.32 mL and 1.34 mL
same,Average animal paw volume percent change,"3 mg/kg, Day 12, left hind paw (L)",5.80%
same,Animal paw volume Day 12 L,"3 mg/kg, Day 12, left paw, individual animals",1.38 mL and 1.32 mL and 1.39 mL (3×) and 1.42 mL and 1.37 mL and 1.63 mL
same,Average animal paw volume percent change,"3 mg/kg, Day 12, right hind paw (R)",5.01%
same,Animal paw volume Day 12 R,"3 mg/kg, Day 12, right paw, individual animals",1.40 mL and 1.43 mL and 1.38 mL (2×) and 1.46 mL and 1.44 mL and 1.36 mL and 1.39 mL
same,Average animal paw volume percent change,"3 mg/kg, Day 13, left hind paw (L)",15.11%
same,Animal paw volume Day 13 L,"3 mg/kg, Day 13, left paw, individual animals",1.62 mL and 1.53 mL and 1.50 mL and 1.54 mL and 1.38 mL and 1.86 mL and 1.43 mL and 1.41 mL
same,Average animal paw volume percent change,"3 mg/kg, Day 13, right hind paw (R)",9.28%
same,Animal paw volume Day 13 R,"3 mg/kg, Day 13, right paw, individual animals",1.42 mL (2×) and 1.50 mL and 1.41 mL and 1.47 mL and 1.40 mL and 1.68 mL and 1.39 mL
same,Average animal paw volume percent change,"3 mg/kg, Day 14, left hind paw (L)",27.04%
same,Animal paw volume Day 14 L,"3 mg/kg, Day 14, left paw, individual animals",1.67 mL and 1.68 mL (2×) and 1.64 mL and 1.59 mL and 2.01 mL and 1.63 mL (2×)
same,Average animal paw volume percent change,"3 mg/kg, Day 14, right hind paw (R)",19.52%
same,Animal paw volume Day 14 R,"3 mg/kg, Day 14, right paw, individual animals",1.57 mL and 1.52 mL and 1.41 mL and 1.87 mL and 1.50 mL and 2.04 mL and 1.43 mL (2×)
same,Average animal paw volume percent change,"3 mg/kg, Day 15, left hind paw (L)",39.96%
same,Animal paw volume Day 15 L,"3 mg/kg, Day 15, left paw, individual animals",1.72 mL and 1.70 mL and 1.91 mL and 1.65 mL and 2.44 mL and 2.06 mL and 1.74 mL and 1.68 mL
same,Average animal paw volume percent change,"3 mg/kg, Day 15, right hind paw (R)",43.85%
same,Animal paw volume Day 15 R,"3 mg/kg, Day 15, right paw, individual animals",1.66 mL and 1.62 mL and 2.31 mL and 1.71 mL and 2.41 mL and 2.02 mL and 1.99 mL and 1.64 mL
same,Average animal paw volume percent change,"3 mg/kg, Day 18, left hind paw (L)",87.19%
same,Animal paw volume Day 18 L,"3 mg/kg, Day 18, left paw, individual animals",2.40 mL and 2.65 mL and 2.62 mL and 2.44 mL (2×) and 2.70 mL and 2.47 mL and 2.22 mL
same,Average animal paw volume percent change,"3 mg/kg, Day 18, right hind paw (R)",89.41%
same,Animal paw volume Day 18 R,"3 mg/kg, Day 18, right paw, individual animals",2.21 mL and 2.56 mL and 2.65 mL and 2.37 mL and 2.70 mL and 2.55 mL and 2.50 mL and 2.71 mL
same,Average animal paw volume percent change,"3 mg/kg, Day 19, left hind paw (L)",98.39%
same,Animal paw volume Day 19 L,"3 mg/kg, Day 19, left paw, individual animals",2.51 mL and 2.85 mL and 2.75 mL and 2.50 mL and 2.71 mL and 2.60 mL and 2.43 mL and 2.79 mL
same,Average animal paw volume percent change,"3 mg/kg, Day 19, right hind paw (R)",94.99%
same,Animal paw volume Day 19 R,"3 mg/kg, Day 19, right paw, individual animals",2.21 mL and 2.91 mL and 2.63 mL and 2.37 mL and 2.68 mL and 2.80 mL and 2.49 mL and 2.76 mL
same,Average animal paw volume percent change,"3 mg/kg, Day 21, left hind paw (L)",100.54%
same,Animal paw volume Day 21 L,"3 mg/kg, Day 21, left paw, individual animals",2.49 mL and 3.01 mL and 2.76 mL and 2.51 mL and 2.68 mL and 2.64 mL and 2.41 mL and 2.87 mL
same,Average animal paw volume percent change,"3 mg/kg, Day 21, right hind paw (R)",94.48%
same,Animal paw volume Day 21 R,"3 mg/kg, Day 21, right paw, individual animals",2.23 mL and 2.91 mL and 2.61 mL and 2.34 mL and 2.69 mL and 2.77 mL (2×) and 2.47 mL
same,average overall clinical score at plateau,[5],7
same,day on which paw volume increased,[5],~14 days
same,effect on hind paw volume,[5],Paw volume increases were delayed; also recorded: more effective at controlling paw volume
same,paw volume relative to CIA + vehicle (group 2),[5],"significantly decreased relative to group 2 on days 19 and 21 (both paws, p<0.05)"
same,animals exhibiting signs of disease,[6],3/8
same,animals with a score of 2 in one hind limb,[6],one animal
same,animals exhibiting disease,"10 mg/kg twice daily P.O. (group 6), day 13",4/8
same,animals with a score of 3 in one or more hind limbs,[7],3/8
same,animals with a score of 4 in a hind limb,[7],1/8
same,animals exhibiting disease,"10 mg/kg twice daily P.O. (group 6), day 15",7/8
same,animals with scores of 4 in one or more hind limbs,"10 mg/kg twice daily P.O. (group 6), day 18",4/8
same,animals exhibiting disease,"10 mg/kg twice daily P.O. (group 6), day 19",all animals

# Source: patent publication US20250263370A1 (Tay Therapeutics Limited, priority 2022, published 2025)
